Holding throughout (assay type): biochemical
One assay addresses LCK (Homo sapiens, UniProt P06239). The assay can be described thus: IC50 inhibitory activity against LCK kinase. The procedure: (§1) IC50 values were calculated by measuring the inhibitory activity against LCK, c-Src, p38a/MAPK14, ABL1, DDR1 and FGR kinases of the compounds of the present invention.
A further assay addresses c-Src (Homo sapiens, UniProt P12931). As to the kind of experiment: IC50 inhibitory activity against c-Src kinase. The protocol:
as §1

The target of a further assay is ABL1 (Homo sapiens, UniProt P00519). As to the kind of experiment: IC50 inhibitory activity against ABL1 kinase. To be noted: read-out: ABL1 IC50. The procedure:
as §1

IC50 data for six compounds are collected here from US11530221B2, “Pyrimido[4,5-d]pyrimidin-2-one derivatives as protein kinase inhibitors” (KOREA INSTITUTE OF SCIENCE AND TECHNOLOGY, priority 2019, dated 2022).

Each structure is given as a SMILES string. Like-named read-outs stand apart in the source and are kept apart here. Square brackets hold non-standard residues; d marks the D form. Peptide text beside a SMILES is read from it. * marks the point of attachment. X1 = Cc1ccc(Nc2ncc3c(n2)N(C)C(=O)N(c2cc(C(=O)*)ccc2C)C3)cn1; Ac4c = NC1(C(=O)O)CCC1; Aib = CC(C)(N)C(=O)O

For orientation: IC50 means the concentration at which inhibition is half-maximal.

LCK, sequence (P06239 whole entry): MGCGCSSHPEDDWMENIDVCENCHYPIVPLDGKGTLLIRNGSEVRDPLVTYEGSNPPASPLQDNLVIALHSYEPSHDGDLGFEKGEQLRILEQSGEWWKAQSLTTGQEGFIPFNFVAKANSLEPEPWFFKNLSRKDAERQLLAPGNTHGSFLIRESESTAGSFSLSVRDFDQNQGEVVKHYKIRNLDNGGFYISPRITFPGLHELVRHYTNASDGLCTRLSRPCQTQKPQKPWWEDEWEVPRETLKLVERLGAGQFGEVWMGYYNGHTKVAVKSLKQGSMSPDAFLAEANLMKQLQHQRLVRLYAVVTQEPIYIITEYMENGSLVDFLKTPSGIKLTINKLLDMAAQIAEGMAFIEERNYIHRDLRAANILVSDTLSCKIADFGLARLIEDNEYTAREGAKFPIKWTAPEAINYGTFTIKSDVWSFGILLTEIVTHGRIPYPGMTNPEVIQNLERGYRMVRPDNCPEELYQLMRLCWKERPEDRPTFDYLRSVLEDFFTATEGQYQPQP
c-Src, sequence (P12931 whole entry): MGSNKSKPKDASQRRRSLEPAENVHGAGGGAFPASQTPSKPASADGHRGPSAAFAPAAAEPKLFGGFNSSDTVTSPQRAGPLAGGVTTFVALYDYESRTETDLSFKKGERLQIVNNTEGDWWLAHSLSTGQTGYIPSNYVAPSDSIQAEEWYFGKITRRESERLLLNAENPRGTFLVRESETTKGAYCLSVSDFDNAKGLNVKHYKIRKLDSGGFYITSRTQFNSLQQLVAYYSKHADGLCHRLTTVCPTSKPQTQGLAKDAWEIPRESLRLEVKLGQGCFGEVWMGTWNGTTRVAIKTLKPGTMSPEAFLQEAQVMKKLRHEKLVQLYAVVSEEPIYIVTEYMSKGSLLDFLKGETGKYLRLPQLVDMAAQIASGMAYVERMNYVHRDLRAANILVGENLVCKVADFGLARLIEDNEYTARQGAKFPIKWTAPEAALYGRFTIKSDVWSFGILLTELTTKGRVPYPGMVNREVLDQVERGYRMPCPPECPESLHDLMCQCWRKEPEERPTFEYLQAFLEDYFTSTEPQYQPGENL
ABL1, sequence (P00519 whole entry): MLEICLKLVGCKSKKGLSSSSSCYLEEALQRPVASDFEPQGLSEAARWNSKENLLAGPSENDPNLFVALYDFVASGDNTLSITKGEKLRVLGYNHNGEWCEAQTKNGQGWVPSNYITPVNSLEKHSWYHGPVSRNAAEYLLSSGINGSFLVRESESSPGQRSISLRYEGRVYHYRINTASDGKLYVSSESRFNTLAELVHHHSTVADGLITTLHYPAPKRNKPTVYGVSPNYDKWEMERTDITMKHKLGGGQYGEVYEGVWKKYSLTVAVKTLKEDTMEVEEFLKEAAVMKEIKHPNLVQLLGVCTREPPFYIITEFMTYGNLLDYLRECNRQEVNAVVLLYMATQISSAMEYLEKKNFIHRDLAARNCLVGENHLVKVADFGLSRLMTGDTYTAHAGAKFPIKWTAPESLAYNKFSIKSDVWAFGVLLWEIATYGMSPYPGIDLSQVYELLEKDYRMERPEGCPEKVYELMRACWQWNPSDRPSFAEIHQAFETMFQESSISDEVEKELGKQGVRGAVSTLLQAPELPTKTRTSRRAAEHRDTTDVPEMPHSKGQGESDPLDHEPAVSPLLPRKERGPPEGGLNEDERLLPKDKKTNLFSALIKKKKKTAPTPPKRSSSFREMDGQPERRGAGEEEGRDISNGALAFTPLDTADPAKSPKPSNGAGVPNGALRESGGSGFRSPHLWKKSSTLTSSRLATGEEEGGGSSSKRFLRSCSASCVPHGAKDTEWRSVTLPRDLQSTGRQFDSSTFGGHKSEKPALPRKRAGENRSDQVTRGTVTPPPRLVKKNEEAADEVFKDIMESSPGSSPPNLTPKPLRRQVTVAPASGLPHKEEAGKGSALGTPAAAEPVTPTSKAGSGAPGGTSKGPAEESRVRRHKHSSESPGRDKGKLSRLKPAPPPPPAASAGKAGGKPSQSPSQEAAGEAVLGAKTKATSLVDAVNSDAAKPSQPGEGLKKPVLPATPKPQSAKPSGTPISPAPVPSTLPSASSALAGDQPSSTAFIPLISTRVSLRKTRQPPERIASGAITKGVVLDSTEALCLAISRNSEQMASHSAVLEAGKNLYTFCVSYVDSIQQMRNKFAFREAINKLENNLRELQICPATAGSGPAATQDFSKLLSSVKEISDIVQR

Take `Cc1ccc(Nc2ncc3c(n2)N(C)C(=O)N(c2cc(C(=O)N[C@@H](C)C(=O)N4CCC[C@H]4C(=O)NC(C)(C)C(=O)N[C@@H](CC(C)C)C(=O)N(C)C)ccc2C)C3)cn1` [Example 17, (S)—N-(1-(((S)-1-(dimethylamino)-4-methyl-1-oxopentan-2-yl)amino)-2-methyl-1-oxopropan-2-yl)-1-((4-methyl-3-(1-methyl-7-((6-methylpyridin-3-yl)amino)-2-oxo-1,4-dihydropyrimido[4,5-d]pyrimidin-3(2H)-yl)benzoyl)-L-alanyl)pyrrolidine-2-carboxamide] (X1-AP[Aib]L-NMe2): the IC50 lay within 1 to 200 nM on LCK (read-out: LCK IC50), 200 to 400 nM on c-Src (read-out: c-Src IC50) and 1 to 200 nM on ABL1.
On to `Cc1ccc(Nc2ncc3c(n2)N(C)C(=O)N(c2cc(NC(=O)[C@H](Cc4c[nH]c5ccccc45)NC(=O)c4ccc([N+](=O)[O-])c(OCC(C)C)c4)ccc2C)C3)cn1` [Example 55], for which, at ABL1, the IC50 was more than 600 nM.
Take `Cc1ccc(Nc2ncc3c(n2)N(C)C(=O)N(c2cc(C(=O)N[C@H](C(=O)N4CCC[C@H]4C(=O)N[C@H](C(=O)N[C@H](C)c4ccccc4)C(C)C)C(C)C)ccc2C)C3)cn1` [Example 9, (S)—N—((S)-3-methyl-1-oxo-1-(((R)-1-phenylethyl)amino)butan-2-yl)-1-((4-methyl-3-(1-methyl-7-((6-methylpyridin-3-yl)amino)-2-oxo-1,4-dihydropyrimido[4,5-d]pyrimidin-3(2H)-yl)benzoyl)-L-valyl)pyrrolidine-2-carboxamide]: the IC50 at LCK (read-out: LCK IC50) is 1 to 200 nM; on c-Src (read-out: c-Src IC50), more than 600 nM.
`Cc1ccc(Nc2ncc3c(n2)N(C)C(=O)N(c2cc(C(=O)N[C@H](C(=O)N4CCC[C@H]4C(=O)NC(C)(C)C(=O)NCC(=O)N(C)C)C(C)C)ccc2C)C3)cn1` [Example 14, (S)—N-(1-((2-(dimethylamino)-2-oxoethyl)amino)-2-methyl-1-oxopropan-2-yl)-1-((4-methyl-3-(1-methyl-7-((6-methylpyridin-3-yl)amino)-2-oxo-1,4-dihydropyrimido[4,5-d]pyrimidin-3(2H)-yl)benzoyl)-L-valyl)pyrrolidine-2-carboxamide] (X1-VP[Aib]G-NMe2): the IC50 against LCK was 1 to 200 nM; against c-Src, more than 600 nM.
Turning to `Cc1ccc(Nc2ncc3c(n2)N(C)C(=O)N(c2cc(C(=O)N[C@H](C(=O)N4CCC[C@H]4C(=O)NC4(C(=O)N[C@@H](CC(C)C)C(=O)N(C)C)CCC4)C(C)C)ccc2C)C3)cn1` [Example 12, (S)—N-(1-(((S)-1-(dimethylamino)-4-methyl-1-oxopentan-2-yl)carbamoyl)cyclobutyl)-1-((4-methyl-3-(1-methyl-7-((6-methylpyridin-3-yl)amino)-2-oxo-1,4-dihydropyrimido[4,5-d]pyrimidin-3(2H)-yl)benzoyl)-L-valyl)pyrrolidine-2-carboxamide] (X1-VP[Ac4c]L-NMe2), the IC50 was 1 to 200 nM against LCK and more than 600 nM against c-Src.
For the compound `Cc1ccc(Nc2ncc3c(n2)N(C)C(=O)N(c2cc(NC(=O)c4ccc5c(c4)NC(=O)[C@H](Cc4ccc(F)cc4)N=C5c4ccccc4)ccc2C)C3)cn1` [Example 28, (S)-3-(4-fluorobenzyl)-N-(4-methyl-3-(1-methyl-7-((6-methylpyridin-3-yl)amino)-2-oxo-1,4-dihydropyrimido[4,5-d]pyrimidin-3(2H)-yl)phenyl)-2-oxo-5-phenyl-2,3-dihydro-1H-benzo[e][1,4]diazepine-8-carboxamide], the IC50 on LCK (read-out: LCK IC50) and on c-Src (read-out: c-Src IC50) was 1 to 200 nM in each case.
